{"source": "patent US20220304992A1", "about": "“METHODS OF REJUVENATING AGED TISSUE BY INHIBITING 15-HYDROXYPROSTAGLANDIN DEHYDROGENASE (15-PGDH)” (The Board of Trustees of the Leland Stanford Junior …, priority 2019, published 2022)", "system": "atrogene and other transcript levels in aged muscles", "experiment": "Quantitative RT-PCR of treated aged muscle tissue", "type": "in vivo, mouse", "excerpt": "We isolated RNA from MuSCs using the RNeasy Micro Kit (Qiagen). For muscle samples, we snap froze the tissue in liquid nitrogen, homogenized muscles in Trizol (Invitrogen) using the FastPrep FP120 homogenizer (MP Biomedicals), and then isolated RNA. We reverse-transcribed cDNA from total mRNA from each sample using the SensiFAST™ cDNA Synthesis Kit (Bioline). We subjected cDNA to RT-PCR using SYBR Green PCR Master Mix (Applied Biosystems) or TaqMan Assays (Applied Biosystems) in an ABI 7900HT Real-Time PCR System (Applied Biosystems). We cycled samples at 95° C. for 10 min and then 40 cycles at 95° C. for 15 s and 60° C. for 1 min. To quantify relative transcript levels, we used 2-ΔΔCt to compare treated and untreated samples and expressed the results relative to Gapdh.\nFor SYBR Green qRT-PCR, we used the following primer sequences: Gapdh, 30 forward 5′-[…]-3′, reverse 5′-[…]-3′; Hpgd, forward 5′-[…] -3′, reverse 5′-[…]-3′; Ptger1, forward 5′ […]-3′, reverse 5′-[…]-3′, Ptger2, forward 5′-[…]-3′, reverse 5′-[…]-3′, Cox2, forward, 5′-[…]-3′, reverse 5′-[…]-3′; Fbxo32, forward 5′-[…]-3′, reverse 5′-[…]-3′. For murine senescence markers and senescence associated markers we used the previously described primers (6).\nTaqMan Assays (Applied Biosystems) were used to quantify Pax7, Myh, p21, Ptger3 and Ptger4 in samples according to the manufacturer instructions with the TaqMan Universal PCR Master Mix reagent kit (Applied Biosystems). Transcript levels were expressed relative to Gapdh levels. For SYBR Green qPCR, Gapdh qPCR was used to normalize input cDNA samples. For Taqman qPCR, multiplex qPCR enabled target signals (FAM) to be normalized individually by their internal Gapdh signals (VIC).\nWe isolated RNA from MuSCs, myoblasts and myotubes using the RNeasy Kit (Qiagen). Muscle samples were snap frozen in liquid nitrogen, then homogenized in Trizol (Invitrogen) using the FastPrep FP120 homogenizer (MP Biomedicals) before isolating RNA. We reverse-transcribed cDNA from total mRNA from each sample using the SensiFAST™ cDNA Synthesis Kit (Bioline). We subjected cDNA to RT-PCR using SYBR Green PCR Master Mix (Applied Biosystems) or TaqMan Assays (Applied Biosystems) in an ABI 7900HT Real-Time PCR System (Applied Biosystems). […] To quantify relative transcript levels, we used 2-ΔΔCt to compare treated and untreated samples and expressed the results relative to Gapdh. […]\nFor murine senescence markers and senescence associated markers we used the previously described primers (2). TaqMan Assays (Applied Biosystems) were used to quantify p21, Mstn, Ptger3 and Ptger4 in samples according to the manufacturer instructions with the TaqMan Universal PCR Master Mix reagent kit (Applied Biosystems). […] Mitochondrial copy number was quantified by using method and primers described previously (14).", "data": [{"smiles": "CCCC[S+]([O-])c1sc2nc(-c3cccs3)cc(-c3ccccc3)c2c1N", "note": "(stereo not shown) [SW033291, 2-(butylsulfinyl)-4-phenyl-6-(thiophen-2-yl)thieno[2,3-b]pyridin-3-amine]", "values": [{"measurement": "other aging, inflammatory and autophagy markers", "setting": "aged mice, SW treatment", "value": "no significant changes"}, {"measurement": "Pgc1α mRNA level", "setting": "aged muscles, SW treatment", "value": "restored to that seen in young muscles"}, {"measurement": "expression of Fbxo32 (Atrogin1) at the mRNA level", "setting": "aged muscles, SW treatment", "value": "decreased expression"}, {"measurement": "expression of atrogenes (Atrogin-1, MuRF1, Musa1, Smart) and Traf6 by RT-qPCR", "setting": "aged muscles, SW vs vehicle", "value": "diminished"}]}]}
